Data: US12115152B2, “Pan-RAF kinase inhibitor and use thereof” (HEFEI INSTITUTES OF PHYSICAL SCIENCE, CHINESE ACADEMY OF …, priority 2019, dated 2024)

Experiments:
[1] = test system: Calu-6, A375, BxPC3, HCT116, COLO205 cell transplanted tumors; experiment: Drug efficacy in mouse transplanted tumor models; format: in vivo; conditions: mouse transplanted tumor models of cancer cells expressing KRAS, BRAF or NRAS mutations, oral daily dosing
[2] = Effect on proliferation of cells, Cell Titer-Glo, 72 hours; format: cell-based; conditions: Mus musculus, BaF3 cells
Description: The compounds of the present invention were tested for their effect on growth of cancer cells (Table 2), to further evaluate the compounds herein for their inhibitory effect on proliferation of cancer cells and their selectivity in inhibiting proliferation of cancer cells. […]
In the example, solutions of the test compound in DMSO at different concentrations (0.000508 μM, 0.00152 μM, 0.00457 μM, 0.0137 μM, 0.0411 μM, 0.123 μM, 0.370 μM, 1.11 μM, 3.33 μM, 10 μM) was added to the above cells respectively. The cells were incubated for 72 hours. The number of viable cells was detected with a Cell Titer-Glo (Promega, USA) Cell Viability Assay Kit by quantifying the ATP in viable cells. The values of GI50 (unit) of the compounds of the present invention against each of the test cells were determined.

[3] = test system: mouse BaF3-FL-BRAF-V600E (stably expressing full-length BRAF-V600E mutant kinase); experiment: Effect on proliferation of cancer cells, Cell Titer-Glo, 72 hours; format: cell-based
Description: (§1) The compounds of the present invention were tested for their effect on growth of cancer cells (Table 2), to further evaluate the compounds herein for their inhibitory effect on proliferation of cancer cells and their selectivity in inhibiting proliferation of cancer cells.
(§2) The cells were incubated for 72 hours. The number of viable cells was detected with a Cell Titer-Glo (Promega, USA) Cell Viability Assay Kit by quantifying the ATP in viable cells. The values of GI50 (unit) of the compounds of the present invention against each of the test cells were determined.

[4] = test system: colorectal cancer cell COLO205 (expressing BRAF-V600E mutant kinase); experiment: as above; format: cell-based; conditions: Homo sapiens, COLO 205
Description: as §1, §2

[5] = test system: melanoma cell A375 (expressing BRAF-V600E mutant kinase); experiment: as above; format: cell-based; conditions: Homo sapiens, A-375
Description: as §1, §2

Row | SMILES | tumor inhibitory effect [1] | GI50 [2] | GI50 [3] | GI50 [4] | GI50 [5]
1 | Cc1ccc(NC(=O)c2cccc(C(F)(F)F)c2)cc1-n1cc(-c2cncc(N3CCOCC3)c2)cn1 [Example 16, N-(4-methyl-3-(4-(5-morpholinopyrid-3-yl)-1H-pyrazol-1-yl)phenyl)-3-(trifluoromethyl)benzamide] | inhibitory effect superior to the control compounds | > 10000 nM | – | – | –
2 | Cc1ccc(NC(=O)c2cccc(C(F)(F)F)c2)cc1-n1cc(-c2cccnc2)cn1 [compound 1, 3-trifluoromethyl-N-(4-methyl-3-(4-(pyrid-3-yl)-1H-pyrazol-1-yl)phenyl)benzamide, reference compound] | – | 3300 nM | 17 nM | 150 nM | 85 nM
